Patent US20250339445A1, “Modulators of Orphan Nuclear Receptors for Treating Pancreatitis, Glioblastoma, Sarcopenia and Stroke” (Emory University, priority 2020, published 2025)
Entries after “also recorded” stand apart in the source; their conditions may differ.

Target: T1, RORα (Homo sapiens, UniProt P35398)
T1 construct: endogenous in cells; host or cells: Huh-7 (Huh7) human hepatocellular carcinoma cells
T1 sequence (P35398 1-523): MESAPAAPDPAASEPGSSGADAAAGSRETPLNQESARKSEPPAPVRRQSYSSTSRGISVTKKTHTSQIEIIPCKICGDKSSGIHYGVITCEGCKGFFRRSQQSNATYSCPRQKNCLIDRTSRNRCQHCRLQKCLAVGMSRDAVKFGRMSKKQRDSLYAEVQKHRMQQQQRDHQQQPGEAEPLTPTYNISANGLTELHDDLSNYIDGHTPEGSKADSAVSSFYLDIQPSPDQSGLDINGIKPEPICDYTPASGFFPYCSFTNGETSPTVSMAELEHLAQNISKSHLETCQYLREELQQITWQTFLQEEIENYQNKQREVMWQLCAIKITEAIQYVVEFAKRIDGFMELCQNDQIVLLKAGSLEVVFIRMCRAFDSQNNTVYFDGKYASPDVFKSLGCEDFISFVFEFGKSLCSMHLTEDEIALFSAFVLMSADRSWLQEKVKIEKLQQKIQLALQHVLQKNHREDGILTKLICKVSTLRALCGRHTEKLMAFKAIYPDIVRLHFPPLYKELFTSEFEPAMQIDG
Test: RORα activity by luciferase reporter (miR-122 promoter) in Huh-7 cells
Assay type: cell-based
Description: Huh-7 cells were transfected with a luciferase reporter plasmid containing the miR-122 promoter (extends to −900 from the transcription start site) with intact wild-type (WT) RORα response element (RORE) or mutated RORE (mut). The cells were treated with Compound 1 one day (24 hours) post-transfection at the indicated concentrations. Luciferase expression was measured after 24 hours of treatment and normalized to Renilla Luciferase activity expressed from a co-transfected pRL plasmid. The pRL Vector, which provides constitutive expression of Renilla luciferase, was used in combination with a firefly luciferase vector to co-transfect cells. Expression of Renilla luciferase provides an internal control value to which expression of the experimental firefly luciferase reporter gene may be normalized.
Luciferase assay. For Luciferase assays, cells grown in 24 well plates were co-transfected with a luciferase reporter plasmid (50 ng) and 1 ng of Renilla Luciferase vector (PRL, Promega) using the TransIT-LT 1 (Mirus) transfection reagent (MIR 2300, Madison, WI). Firefly and Renilla luciferase activity was assessed using the Dual Luciferase Reporter Assay system (Promega). Readings were taken in triplicates on a Mithras LB 940 Luminometer (Berthold Technologies). […]
(§1) Following transfections, the cells were lysed with passive lysis buffer (Cat #E1941; Promega), shaking for 20 min at RT and transferred into appropriate 96-well plate. Firefly and Renilla luciferase activity was assessed using the Dual Luciferase Reporter Assay system (Cat #E1910; Promega) on a luminometer Mithras 2000 (Centro XZ, LB960, Berthold Technologies, Bad Wildbad, Germany). […] Readings were taken in triplicate.
as §1, with “room temperature (RT)” for “RT”, “into the” for “into”, “triplicates. […]” for “triplicate.”
After transfections, the cells were lysed with passive lysis buffer (catalog no. E1941, Promega), shaken for 20 minutes at room temperature, and transferred into the appropriate 96-well plate. Firefly and Renilla luciferase activity was assessed using the Dual Luciferase Reporter Assay system (catalog no. E1910, Promega) on a luminometer Mithras 2000 (Centro XZ, LB960; Berthold Technologies, Bad Wildbad, Germany). […] Readings were taken in triplicate.

Induction of MIR122 promoter, compared with screened set and SR1078 (Huh7, overnight, 1 μM tested compounds, 10 μM SR1078): most potent
Compound: O=C1Nc2cc(C(=O)N3CCC(Cc4ccccc4)CC3)ccc2Nc2ccccc21 [Compound 1]
Luciferase expression from miR-122 promoter with mutated RORE (Huh-7, mutated RORE): negates activity; also recorded: no activity; also recorded: no induction
Luciferase expression from miR-122 promoter with WT RORE (Huh-7, wild-type RORE, 24 hours of treatment): dose-dependent increase; also recorded: induces expression of RORα-regulated luciferase; also recorded: increase expression of MIR122 promoter activity
